Consider 1 molecule from patent US20260376293A1, “METHODS FOR STUDYING GPR158 PHARMACOLOGY AND IDENTIFICATION OF ITS LIGANDS” (UNIVERSITY OF FLORIDA RESEARCH FOUNDATION, INCORPORATED, priority 2022, published 2026).

In this test the target is T1, GPR158 (Homo sapiens, UniProt Q5T848).
T1 construct: expressed in transfected cells; host or cells: HEK293T/17
T1 sequence (Q5T848 24-1215): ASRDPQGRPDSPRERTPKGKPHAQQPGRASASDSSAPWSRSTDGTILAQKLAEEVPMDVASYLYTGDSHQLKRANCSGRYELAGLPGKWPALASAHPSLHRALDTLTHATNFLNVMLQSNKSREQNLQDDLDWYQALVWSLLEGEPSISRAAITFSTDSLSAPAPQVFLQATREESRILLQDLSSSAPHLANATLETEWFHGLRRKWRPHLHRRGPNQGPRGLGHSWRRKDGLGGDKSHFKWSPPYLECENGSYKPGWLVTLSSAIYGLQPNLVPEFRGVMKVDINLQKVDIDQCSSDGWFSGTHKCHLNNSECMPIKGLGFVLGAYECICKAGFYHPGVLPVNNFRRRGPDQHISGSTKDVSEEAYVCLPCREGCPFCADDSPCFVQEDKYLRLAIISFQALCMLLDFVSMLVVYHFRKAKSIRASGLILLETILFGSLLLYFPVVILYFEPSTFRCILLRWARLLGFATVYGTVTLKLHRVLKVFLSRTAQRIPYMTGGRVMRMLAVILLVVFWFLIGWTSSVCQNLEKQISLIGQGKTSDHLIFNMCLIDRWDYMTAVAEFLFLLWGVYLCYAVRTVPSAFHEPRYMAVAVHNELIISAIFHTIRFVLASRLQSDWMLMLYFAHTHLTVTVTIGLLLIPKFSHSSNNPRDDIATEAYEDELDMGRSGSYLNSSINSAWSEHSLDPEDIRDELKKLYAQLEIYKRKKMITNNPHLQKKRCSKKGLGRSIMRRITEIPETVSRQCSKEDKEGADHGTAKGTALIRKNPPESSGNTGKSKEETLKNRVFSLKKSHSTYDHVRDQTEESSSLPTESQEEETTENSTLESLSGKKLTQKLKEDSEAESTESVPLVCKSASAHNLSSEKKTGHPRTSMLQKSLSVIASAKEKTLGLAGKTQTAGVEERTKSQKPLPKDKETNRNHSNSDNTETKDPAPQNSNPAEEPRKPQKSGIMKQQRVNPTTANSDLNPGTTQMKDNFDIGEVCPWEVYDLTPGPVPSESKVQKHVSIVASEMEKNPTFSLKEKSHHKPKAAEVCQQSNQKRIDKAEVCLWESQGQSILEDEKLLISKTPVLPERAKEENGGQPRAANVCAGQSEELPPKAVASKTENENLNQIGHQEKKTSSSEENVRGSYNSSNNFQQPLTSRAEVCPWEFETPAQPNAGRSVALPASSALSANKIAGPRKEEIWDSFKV
T1 sequence (P49802 1-495 partner): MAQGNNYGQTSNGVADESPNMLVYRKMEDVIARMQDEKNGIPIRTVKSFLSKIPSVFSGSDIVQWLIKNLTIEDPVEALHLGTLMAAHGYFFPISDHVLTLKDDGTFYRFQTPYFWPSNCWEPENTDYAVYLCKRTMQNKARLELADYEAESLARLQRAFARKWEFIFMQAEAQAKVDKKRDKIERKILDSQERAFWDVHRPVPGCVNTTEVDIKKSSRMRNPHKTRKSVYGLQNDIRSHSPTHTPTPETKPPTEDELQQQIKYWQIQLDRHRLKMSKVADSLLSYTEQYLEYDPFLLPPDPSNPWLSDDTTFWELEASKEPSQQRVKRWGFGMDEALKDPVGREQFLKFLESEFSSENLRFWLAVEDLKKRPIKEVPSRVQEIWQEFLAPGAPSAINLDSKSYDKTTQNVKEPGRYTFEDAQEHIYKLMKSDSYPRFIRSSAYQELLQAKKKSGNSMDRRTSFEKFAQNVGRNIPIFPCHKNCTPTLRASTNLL
T1 sequence (O14775 1-395 partner): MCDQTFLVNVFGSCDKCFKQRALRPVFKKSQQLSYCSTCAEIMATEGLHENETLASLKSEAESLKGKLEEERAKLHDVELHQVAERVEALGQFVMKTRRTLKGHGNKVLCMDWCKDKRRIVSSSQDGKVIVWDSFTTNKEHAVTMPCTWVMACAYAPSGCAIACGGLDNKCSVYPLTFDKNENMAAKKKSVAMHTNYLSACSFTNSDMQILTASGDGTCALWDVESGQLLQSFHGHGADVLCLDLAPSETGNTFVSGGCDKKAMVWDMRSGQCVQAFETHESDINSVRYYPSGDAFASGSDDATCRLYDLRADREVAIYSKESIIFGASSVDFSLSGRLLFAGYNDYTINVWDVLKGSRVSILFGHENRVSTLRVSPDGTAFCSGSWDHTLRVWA
Briefly: HTRF cAMP Gαi assay, HEK293T/17 cells. It counts as cell-based. To be noted: forskolin; GPR158-RGS7/Gβ5, HEK293T/17. How it is done:
FIGS. 18A-18C: A. Schematic representation of HTRF Gαi CAMP assay. B. cAMP standard curve to establish assay window and dynamic range. The data shown here indicate the HTRF ratio plotted as a function of various concentrations of cAMP standards (0.17 nM to 712 nM). The curve fitting was performed using Nonlinear regression analysis in Graphpad Prism software. C. Gly treatment of GPR158-RGS7/Gβ5 expressing HEK293T/17 cells leads to depletion of cAMP levels in a concentration dependent manner. Data shown here represent the HTRF ratio normalized with respect to the buffer treated cells (control) (Mean±SEM from 1 experiment performed in triplicates).
HEK293T/17 cells were transfected with GPR158, RGS7 and Gβ5 plasmids as mentioned above by Maxcyte electroporation. 24 hours post transfection, cells were harvested by centrifugation, counted, and seeded in a white 384 well plate at a density of 6000 cells per well after resuspending in the stimulation buffer provided with the kit. […] The HTRF signal was measured using the HTRF optic module (donor excitation: 337 nm, donor emission: 620 nm, acceptor emission 665 nm) and laser energy source in the Pherastar FSX microplate reader (BMG Labtech).
The data were plotted as the ratio of fluorescence emission intensities by acceptor and donor (Em 665 nm/Em 620 nm). […]
Background: TR-FRET usually uses a lanthanide donor and a delayed reading to cut background.

In the case of `NCC(=O)O` [glycine], the “HTRF signal change (cAMP decrease)” value was “increase in HTRF signal in a Gly dose dependent fashion”.
